{"source": "patent US8778961B2", "about": "“O-methylated rapamycin derivatives for alleviation and inhibition of lymphoproliferative disorders” (The Trustees of the University of Pennsylvania, priority 2000, dated 2014)", "system": "PTLD-like EBV+ B cell lines", "assay": "in vitro cell growth inhibition (3H-thymidine incorporation)", "format": "cell-based, human", "details": "for degree of inhibition of growth: 0-10 nanomolar", "from_the_text": "Most cell lines used in this study were lymphoblastoid B-cell lines obtained by in vitro infection with EBV of peripheral blood mononuclear cells (PBMC). Cell lines A1 and A2D6 were obtained from normal, healthy individuals. Cell lines 15A and 20A were obtained from two different patients with a low grade B-cell lymphoma with monoclonal cold agglutinins (Silberstein et al., 1991, Blood 78:2372-2386). Both lines secreted cold agglutinins with the same specificity as the cold agglutinins found in the patient's serum (Silberstein et al., 1991, Blood 78:2372-2386). […] LCL B-cell line was obtained from a patient with a progressive cutaneous T-cell lymphoproliferative disorder (Zhang et al., 1996, Proc. Natl. Acad. Sci. USA 93:9148-9153). BC-1 is derived from a peritoneal effusion B-cell lymphoma (PEL) and, in addition to EBV, harbors […] virus (Cesarman et al., 1995, Blood 86:2708-2714). The other 3 cell lines used as controls in the in vitro growth inhibition assay were HTLV-I (+) T-cell lines ATL-2 (Maeda et al., 1985, Exp. Med. 162:2169-2174); C10MJ2 (Popovic et al., 1983, Science 219: 856-859); and HUT102B (Poiescz, 1980, Proc. Natl. Acad. Sci. USA 77:7415-7419; Bunn, et al, 1996, J. Cell. Biochem. Suppl 24:12-23) derived from patients with adult T-cell leukemia/lymphoma (ATLL). They were shown by us to be non-responsive to SDZ RAD and the related, immunosuppressive macrolide, rapamycin (Zhang et al., 1999, Leukemia Res. 23:373-384). All cell lines were maintained in humidified incubators at 37° C. in an atmosphere containing 5% CO2 in standard medium: RPMI Medium 1640 (Gibco BRL, Grand Island, N.Y.) supplemented with 10% (v/v) heat inactivated fetal bovine serum (BioWhittaker, Walkersville, Md.), 1% penicillin/streptomycin/fungizone mixture (Gibco BRL), and 2 millimolar L-glutamine (Gibco BRL).\nAn assay to assess inhibition of in vitro cell growth by SDZ RAD was performed as described (Zhang et al., 1999, Leukemia Res. 23:373-384; Zhang et al., 1996, Proc. Natl. Acad. Sci. USA 93:9148-9153). Briefly, cell lines were cultured for 32 hours in triplicate at 2×10^4 cells per well in the presence of various concentrations of SDZ RAD (Novartis Pharma, Basel). After pulsing the cells with 0.5 microcurie ^3H-thymidine (New England Nuclear, Boston, Mass.) and culturing the cells for the next 18 hours, isotope incorporation into the cells was measured. The results of proliferation assays were expressed as the mean radioactivity of triplicate cultures. Standard deviation within the triplicates was <15%.\nIn order to determine whether SDZ RAD can inhibit proliferation of cells mimicking PTLDs, 6 different EBV^+ B cell lines were cultured in vitro in the presence of the drug at various concentrations. […]"}
{"smiles": "CO[C@H]1C[C@@H]2CC[C@@H](C)[C@@](O)(O2)C(=O)C(=O)N2CCCC[C@H]2C(=O)O[C@H]([C@H](C)C[C@@H]2CC[C@@H](OCCO)[C@H](OC)C2)CC(=O)[C@H](C)/C=C(\\C)[C@@H](O)[C@@H](OC)C(=O)[C@H](C)C[C@H](C)/C=C/C=C/C=C/1C", "note": "[SDZ RAD, 40-O-(2-hydroxy)ethyl-rapamycin]", "values": [{"measurement": "inhibition of growth", "setting": "1 nanomolar, all EBV+ B cell lines, 32 hours culture then 18 hours 3H-thymidine pulse", "value": "60-95%"}, {"measurement": "sensitivity of cell lines to the drug", "setting": "all PTLD-like EBV+ B cell lines", "value": "very sensitive"}, {"measurement": "degree of inhibition of growth", "setting": "cell lines obtained from normal B cells", "value": "90-100%"}, {"measurement": "degree of inhibition of growth", "setting": "lines derived from patients with B-cell lymphomas (15A, 20A and BC-1)", "value": "80-90%"}]}
